These results are taken from PubChem BioAssay (NCI).

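Tested at 5 concentrations; 48 h exposure; 96-well plates; endpoints linearly interpolated, else capped at highest concentration. At the TGI there is no net growth.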 A value given as a limit tells only on which side of the number the result lay.

Some test systems named below: A498 renal; NCI-H226 lung; HCC-2998 colon; PC-3 prostate; MALME-3M melanoma; SNB-19 CNS; BT-549 breast; SK-MEL-5 melanoma; SF-539 CNS; MDA-MB-231 breast; K-562 leukemia; HT29 colon; CAKI-1 renal; COLO 205 colon; HOP-92 NSCLC; SR leukemia.
Common to all, as to test: inhibition of tumour cell growth, NCI panel, 48 h

Consider `CC(C)=CCC/C(=C/CC/C(=C\CCc1ccoc1)C(=O)O)C(=O)O`, for which the TGI in the test on A498 renal, with NCI-H226 lung, with HCC-2998 colon, in the test on PC-3 prostate, in the test with MALME-3M melanoma and in the test on SNB-19 CNS was over 100 µM in each case. Moreover, the TGI in the test on BT-549 breast, with SK-MEL-5 melanoma, in the test with SF-539 CNS, in the test on MDA-MB-231 breast, in the test with K-562 leukemia and in the test with HT29 colon was over 100 µM in each case. For the same compound, the TGI in the test on CAKI-1 renal, with COLO 205 colon and with HOP-92 NSCLC was over 100 µM throughout.
`C/C=C\C(CC(=O)NCCC1CN(S(=O)(=O)c2ccc(C)cc2)c2ccccc21)CC(=O)OC` (stereo not given): the TGI in the test on A498 renal, in the test with HCC-2998 colon, in the test with PC-3 prostate, in the test with MALME-3M melanoma, in the test with SNB-19 CNS and with BT-549 breast was over 100 µM throughout. Besides, the TGI with SK-MEL-5 melanoma, in the test on MDA-MB-231 breast, in the test on K-562 leukemia, in the test with HT29 colon, in the test on CAKI-1 renal and in the test on COLO 205 colon was over 100 µM throughout. This compound registered a TGI in the test with HOP-92 NSCLC of over 100 µM.
For the compound `C=CCOC(=O)NC1C(OC(C)[C@@H](NC(=O)OCc2ccccc2)C(=O)OC(C)(C)C)OC(COC(C)=O)C(OC(C)=O)C1OC(C)=O` (stereo not given in full), the TGI in the test on A498 renal, with NCI-H226 lung, in the test on HCC-2998 colon, with SR leukemia, in the test on PC-3 prostate and in the test on MALME-3M melanoma was over 100 µM in each case. For the same compound, the TGI is over 100 µM in the test with SNB-19 CNS; over 100 µM in the test with SK-MEL-5 melanoma; over 100 µM with SF-539 CNS; 96.2 µM with MDA-MB-231 breast; over 100 µM in the test with K-562 leukemia; over 100 µM with HT29 colon. For the same compound, the TGI with CAKI-1 renal, in the test on COLO 205 colon and in the test with HOP-92 NSCLC was over 100 µM throughout.
Turning to `O=C(c1ccc(Cl)cc1)N(C(=O)N1CCC(c2ccccc2)CC1)c1ccccc1`, the TGI with A498 renal is 96.5 µM; in the test with NCI-H226 lung it was 99.7 µM; in the test on PC-3 prostate, 73.8 µM; in the test on MALME-3M melanoma it was 84.6 µM; with SNB-19 CNS, over 100 µM; with BT-549 breast, 73.6 µM. Besides, the TGI in the test with SK-MEL-5 melanoma was 35.2 µM; with SF-539 CNS, over 100 µM; in the test with MDA-MB-231 breast it was over 100 µM; with K-562 leukemia it was over 100 µM; in the test on HT29 colon, over 100 µM; with CAKI-1 renal, over 100 µM. Also, the TGI in the test on COLO 205 colon is over 100 µM.
As to `COC(=O)c1sc(=S)sc1SCc1ccc(CSc2sc(=S)sc2C(=O)OC)cc1`, the TGI in the test with A498 renal, in the test on NCI-H226 lung, in the test on HCC-2998 colon, with PC-3 prostate, with MALME-3M melanoma and in the test with SNB-19 CNS was over 100 µM each time. Also, the TGI in the test on BT-549 breast, in the test on SK-MEL-5 melanoma, with MDA-MB-231 breast, in the test with K-562 leukemia, with HT29 colon and with CAKI-1 renal was over 100 µM each time. Besides, the TGI in the test with COLO 205 colon and in the test with HOP-92 NSCLC was over 100 µM throughout.
As to `N#Cc1c(-c2ccc([N+](=O)[O-])cc2)c(C#N)c(=O)n(NS(=O)(=O)c2ccccc2)c1-c1ccccc1`, the TGI in the test on A498 renal, in the test with NCI-H226 lung, in the test with HCC-2998 colon, with PC-3 prostate, in the test on MALME-3M melanoma and in the test on SNB-19 CNS was over 100 µM in each case. Also, the TGI in the test on BT-549 breast, in the test with SK-MEL-5 melanoma, in the test with SF-539 CNS, with MDA-MB-231 breast, in the test with K-562 leukemia and in the test with HT29 colon was over 100 µM each time. The TGI in the test with CAKI-1 renal, with COLO 205 colon and with HOP-92 NSCLC was over 100 µM in each case.
As for `CCCCCCCCCCCCCCCCOCC(CC(F)(F)P(=O)(OCC)OCC)OC(C)=O` (stereo not given), the TGI in the test on A498 renal came to 25.8 µM; in the test on NCI-H226 lung, 28.7 µM; in the test on HCC-2998 colon, 22.6 µM; in the test on PC-3 prostate it was 26.7 µM; in the test on MALME-3M melanoma it was 25.7 µM; in the test with SNB-19 CNS it was 15.8 µM. The TGI with BT-549 breast turned out to be 28.8 µM; with SK-MEL-5 melanoma, 36.2 µM; in the test with MDA-MB-231 breast, 30.1 µM; in the test with K-562 leukemia it was 48.9 µM; in the test with HT29 colon it was 35.5 µM; in the test with CAKI-1 renal, 30.3 µM. Besides, the TGI in the test on COLO 205 colon was 32.5 µM; with HOP-92 NSCLC it was 23.1 µM.
Consider `CC(=O)O[C@H]1C(=O)[C@@]2(C)[C@H]([C@H](OC(=O)c3ccccc3)[C@]3(O)C[C@H](OC(=O)[C@H](O)[C@@H](NC(=O)c4cccc(N=[N+]=[N-])c4)c4ccccc4)C(C)=C1C3(C)C)[C@]1(OC(C)=O)CO[C@@H]1C[C@@H]2O`, for which the TGI is 7.62 µM in the test with A498 renal; over 25 µM in the test on NCI-H226 lung; 0.162 µM in the test on SR leukemia; over 25 µM in the test with PC-3 prostate; over 25 µM in the test on MALME-3M melanoma; over 25 µM in the test with SNB-19 CNS. The TGI in the test with SK-MEL-5 melanoma was 3.11 µM; in the test with SF-539 CNS, 0.0133 µM; in the test with MDA-MB-231 breast, 0.422 µM; in the test with K-562 leukemia it was 0.0242 µM; in the test with HT29 colon, over 6.26 µM; in the test on CAKI-1 renal, over 25 µM. The TGI is 0.0405 µM in the test with COLO 205 colon and over 23.9 µM in the test with HOP-92 NSCLC.
Take `CC(C)C1=CC23CCC4C(C)(C(=O)O)CCCC4(C)C2CC1C1C(=O)N(c2ccccc2N2C(=O)C4C5CC6C7(C)CCCC(C)(C(=O)O)C7CCC6(C=C5C(C)C)C4C2=O)C(=O)C13` (stereo not given): the TGI in the test on A498 renal came to 13.6 µM; with NCI-H226 lung, 30.2 µM; in the test with HCC-2998 colon, 16.1 µM; with SR leukemia, 17.3 µM; in the test on PC-3 prostate it was 14 µM; in the test on MALME-3M melanoma, 28.3 µM. Moreover, the TGI came out at 16 µM with SNB-19 CNS; 17.5 µM in the test on SK-MEL-5 melanoma; 12.5 µM with SF-539 CNS; 32.3 µM in the test with MDA-MB-231 breast; 73 µM with K-562 leukemia; 10.6 µM with HT29 colon. Further, the TGI in the test with COLO 205 colon was determined as 17.8 µM; in the test on HOP-92 NSCLC it was 32.5 µM.
Regarding `CN(C)C(=S)/N=c1\ssc(=S)n1Cc1cccnc1`, the TGI in the test with A498 renal, in the test on NCI-H226 lung, in the test with HCC-2998 colon, in the test on SR leukemia, with PC-3 prostate and with MALME-3M melanoma was over 100 µM each time. Moreover, the TGI is over 100 µM with SNB-19 CNS; 37.8 µM with SK-MEL-5 melanoma; over 100 µM in the test on SF-539 CNS; over 100 µM with MDA-MB-231 breast; over 100 µM with K-562 leukemia; over 49.5 µM in the test with HT29 colon. For the same compound, the values for the TGI with CAKI-1 renal, with COLO 205 colon and in the test on HOP-92 NSCLC were over 100 µM, 32.1 µM and over 100 µM, respectively.
As to `CCOC(=O)Cn1c(=O)c2nc(SC)sc2n(CC)c1=S`, the TGI in the test with NCI-H226 lung, in the test with HCC-2998 colon, in the test on SR leukemia, in the test with PC-3 prostate, in the test with MALME-3M melanoma and in the test on SNB-19 CNS was over 100 µM in each case. Also, the TGI in the test with SK-MEL-5 melanoma, in the test on SF-539 CNS, with MDA-MB-231 breast, with K-562 leukemia, with HT29 colon and with COLO 205 colon was over 100 µM in each case. This compound showed a TGI in the test on HOP-92 NSCLC of over 100 µM.
Take `Cc1ccc(NC2=CC(=O)C(NO)c3ccccc32)cc1` (stereo not given): the TGI in the test on A498 renal came to 33.4 µM; in the test with NCI-H226 lung it was 49.3 µM; with HCC-2998 colon, 25.8 µM; in the test with SNB-19 CNS it was 11.5 µM; in the test on BT-549 breast, 26.4 µM; in the test on SK-MEL-5 melanoma it was 2.92 µM. In addition, the TGI in the test on SF-539 CNS was 8.8 µM; in the test on MDA-MB-231 breast it was 7.12 µM; with HT29 colon, 17.1 µM; in the test with CAKI-1 renal, 6.73 µM; with COLO 205 colon, 8.72 µM; in the test with HOP-92 NSCLC, 8.25 µM.
As for `CN(C)CCN(C)c1ccc2c(=O)n(CCN(C)C)c(=O)n3c4ccccc4c(=O)c1c23`, the TGI in the test with A498 renal was found to be 5.36 µM; in the test with NCI-H226 lung it was 1.59 µM; with HCC-2998 colon, 2.05 µM; in the test on PC-3 prostate it was 21.3 µM; in the test with MALME-3M melanoma it was 3 µM; in the test on SNB-19 CNS, 9.7 µM. The TGI in the test on BT-549 breast was found to be 15 µM; in the test on SK-MEL-5 melanoma it was 2.71 µM; in the test on SF-539 CNS, 2.15 µM; in the test with MDA-MB-231 breast it was 4.23 µM; in the test with HT29 colon, 3.73 µM; in the test on CAKI-1 renal, 1.08 µM. For the same compound, the TGI came to 3.03 µM in the test on COLO 205 colon and 1.82 µM in the test on HOP-92 NSCLC.
As to `CC(=O)O[C@H]1[C@@H]2OC(=O)[C@@](O)(CC3CCCO3)[C@@H]2CC(=O)[C@](C)(O)CC/C=C(\C)CCC[C@@H]1C` (stereo not given in full), the TGI in the test with A498 renal is over 100 µM; with NCI-H226 lung it was 32.5 µM; in the test on HCC-2998 colon, over 100 µM; with PC-3 prostate it was over 100 µM; with MALME-3M melanoma it was over 100 µM; in the test on SNB-19 CNS it was over 100 µM. For the same compound, the TGI in the test on BT-549 breast is 70.4 µM; in the test with SK-MEL-5 melanoma, over 100 µM; in the test on SF-539 CNS, 36.7 µM; in the test on MDA-MB-231 breast, 63 µM; with K-562 leukemia, 90.9 µM; in the test on CAKI-1 renal, 44.5 µM. Further, the TGI worked out at 34.5 µM in the test with COLO 205 colon and 87.7 µM in the test with HOP-92 NSCLC.
